Data on nine compounds can be found in patent publication US6677329B1, “Non-aromatic estrogenic steroids with a hydrocarbon substituent in position 11” (Akzo Nobel N V., priority 1999, dated 2004).

Assay [1] addresses T1, human estrogen receptor α (hERα) (Homo sapiens, UniProt P03372).
T1 construct: expressed in transfected cells; host or cells: CHO cells, line CHO-ERRO 2B1-1E9, with rat oxytocin promoter and luciferase reporter
T1 sequence (P03372 1-595): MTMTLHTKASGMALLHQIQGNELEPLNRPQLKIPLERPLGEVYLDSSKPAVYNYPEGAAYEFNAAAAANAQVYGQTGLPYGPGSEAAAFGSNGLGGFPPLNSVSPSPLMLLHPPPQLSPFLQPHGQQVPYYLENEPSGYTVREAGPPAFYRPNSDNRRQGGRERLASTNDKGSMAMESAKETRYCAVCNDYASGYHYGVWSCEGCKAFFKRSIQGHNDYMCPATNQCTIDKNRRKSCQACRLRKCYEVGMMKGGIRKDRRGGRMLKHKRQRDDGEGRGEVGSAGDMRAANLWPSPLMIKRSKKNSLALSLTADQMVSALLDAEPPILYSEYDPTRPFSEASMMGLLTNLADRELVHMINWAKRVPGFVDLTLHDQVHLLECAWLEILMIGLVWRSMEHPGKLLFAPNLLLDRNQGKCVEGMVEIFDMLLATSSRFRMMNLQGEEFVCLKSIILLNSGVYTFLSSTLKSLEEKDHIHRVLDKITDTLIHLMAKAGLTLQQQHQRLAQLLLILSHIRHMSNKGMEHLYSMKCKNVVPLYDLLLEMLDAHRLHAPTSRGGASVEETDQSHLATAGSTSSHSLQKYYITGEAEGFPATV
Kind of assay: transactivation assay in recombinant CHO cells (rat oxytocin promoter, luciferase reporter), α. It counts as cell-based. The conditions noted are these: potency ratio, in percentage of the action of the reference compound in the assay. Here is the method: (§1) Compounds are tested for their estrogen receptor activity in a binding assay and in a transactivation assay.
(§2) The antiestrogenic activity of compounds is determined in an in vitro bioassay with recombinant Chinese hamster ovary (CHO) cells stably co-transfected with the human estrogen receptor α (hERα) or β receptor (hERβ), the rat oxytocin promoter (RO) and the luciferase reporter gene (LUC). The antiestrogenic activity (potency ratio) of a test compound to inhibit the transactivation of the enzyme luciferase mediated via the estrogen receptor by the estrogen Org 2317 (estradiol, 1, 3, 5 (10)-estratriene-3,17β-diol) is compared with the standard Org 34790 (ICI 164.384; (7α,17β)-N-butyl-3,17-dihydroxy-N-methylestra-1,3,5 (10)-triene-7-undecanamide).
(§3) Test medium: Intact recombinant CHO cells stably co-transfected with the human estrogen receptor, the rat oxytocin promoter and the luciferase reporter gene. The cell line has been produced within the Department of Biotechnology and Biochemistry (BBC) (N.V. Organon) and is known under the name CHO-ERRO 2B1-1E9.
(§4) The data are expressed in percentage of the action of the reference compound in the assay

The target in assay [2] is T2, human estrogen β receptor (hERβ) (Homo sapiens, UniProt Q92731).
T2 construct: expressed in transfected cells; host or cells: CHO cells with rat oxytocin promoter and luciferase reporter (no ERβ line named)
T2 sequence (Q92731 whole entry): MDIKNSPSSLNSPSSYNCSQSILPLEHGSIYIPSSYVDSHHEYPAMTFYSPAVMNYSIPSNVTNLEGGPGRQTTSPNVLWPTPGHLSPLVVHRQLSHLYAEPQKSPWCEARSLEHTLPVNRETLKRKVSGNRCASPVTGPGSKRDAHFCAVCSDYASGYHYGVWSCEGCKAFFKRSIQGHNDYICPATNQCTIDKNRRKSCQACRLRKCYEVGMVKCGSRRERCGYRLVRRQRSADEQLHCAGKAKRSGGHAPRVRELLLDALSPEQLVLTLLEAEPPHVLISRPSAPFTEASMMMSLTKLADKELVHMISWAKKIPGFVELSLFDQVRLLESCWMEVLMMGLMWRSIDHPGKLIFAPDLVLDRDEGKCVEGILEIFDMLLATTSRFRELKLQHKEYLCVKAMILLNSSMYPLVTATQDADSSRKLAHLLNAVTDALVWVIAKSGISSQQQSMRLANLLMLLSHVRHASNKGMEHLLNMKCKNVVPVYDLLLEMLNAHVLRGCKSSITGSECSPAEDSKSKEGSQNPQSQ
The assay is described as follows: competitive binding to cytoplasmic human estrogen receptor from recombinant CHO cells (β-binding). Particulars: relative affinity (potency ratio), in percentage of the action of the reference compound in the assay; cytosol of recombinant CHO cells. Here is the method: (§5) Compounds are tested for their estrogen receptor activity in a binding assay and in a transactivation assay. Determination of competitive binding to cytoplasmic human estrogen receptor from rec.CHO cells is used to estimate the relative affinity (potency ratio) of a test compound for estrogen receptors present in the cytosol of recombinant Chinese hamster ovary (CHO) cells, stably transfected with the human estrogen receptor, as compared with estradiol (E2). Cytosol prepared from recombinant CHO cells, stably transfected with the human estrogen receptor. The cell line has been made within the Department of Biotechnology and Biochemistry (BBC) (N.V. Organon) and is known under the name CHO-ER (2B1). Reference compounds are ethinylestradiol and estriol. The data are expressed in percentage of the action of the reference compound in the assay

The target in assay [3] is T2, human estrogen β receptor (hERβ). Kind of assay: transactivation assay in recombinant CHO cells (rat oxytocin promoter, luciferase reporter), β. It counts as cell-based. The conditions noted are these: potency ratio, in percentage of the action of the reference compound in the assay. On the procedure:
as §1, §2, §3, §4

For assay [4], the target named is T1, human estrogen receptor α (hERα). The assay is described as follows: competitive binding to cytoplasmic human estrogen receptor from recombinant CHO cells (α-binding). Particulars: relative affinity (potency ratio), in percentage of the action of the reference compound in the assay; cytosol of recombinant CHO cells. Here is the method:
as §5

Structures are written as SMILES.

With `C#C[C@]1(O)CCC2C3CC[C@H]4C[C@H](O)CCC4C3[C@@H](CCF)C[C@@]21C` (stereo partly drawn) [Compound 32, (3α,5α,11β,17β)-11-(2-fluoroethyl)-19-norpregn-20-yne-3,17-diol], the α-transactivation in assay [1] amounted to 2.4 percentage. Besides, in assay [2], the β-binding is listed as under 0.1 percentage. The β-transactivation in assay [3] turned out to be 0.1 percentage. Also, in assay [4], the α-binding. is reported as 2,6 percentage.

For `C#C[C@]1(O)CCC2C3CC[C@H]4C[C@@H](O)CCC4C3[C@@H](C(F)F)C[C@@]21C` (stereo partly drawn) [Compound 21, (3β,5α,11β,17β)-11-difluoromethyl-19-norpregn-20-yne-3,17-diol], in assay [1], the α-transactivation amounted to 7.7 percentage. In addition, the β-binding in assay [2] came to 0.2 percentage. Moreover, in assay [3], the β-transactivation is on record as 0.1 percentage. For the same compound, the α-binding. in assay [4] worked out at 8.6 percentage.

For the compound `C#C[C@]1(O)CCC2C3C(C4=C(C[C@H](O)CC4)C[C@H]3C)[C@@H](CCF)C[C@@]21C` (stereo partly drawn) [Compound 55, (3α,7α,11β,17β)-11-(2-fluoroethyl)-7-methyl-19-norpregn-5(10)-en-20-yne-3,17-diol], in assay [1], the α-transactivation is 61.5 percentage. Also, the β-binding in assay [2] came out at 0.1 percentage. Further, in assay [3], the β-transactivation came to 1.9 percentage. Also, in assay [4], the α-binding. amounted to 36 percentage.

As for `C#C[C@]1(O)[C@H](C)CC2C3C(C(=C)C[C@@]21C)C1CC[C@H](O)C[C@@H]1C[C@H]3C` (stereo partly shown) [Compound 81], the α-transactivation in assay [1] is 27 percentage. For the same compound, the β-transactivation in assay [3] was 0.1 percentage.

For `C#C[C@]1(O)CCC2C3C(C4=C(C[C@@H](O)CC4)C[C@H]3C)[C@@H](CCF)C[C@@]21C` (stereo partly drawn) [Compound 54, (3β,7α,11β,17β)-11-(2-fluoroethyl)-7-methyl-19-norpregn-5(10)-en-20-yne-3,17-diol], the α-transactivation in assay [1] came out at 29.7 percentage. For the same compound, the β-binding in assay [2] came out at 0.1 percentage. The β-transactivation in assay [3] is 1.0 percentage. The α-binding. in assay [4] is on record as 27,5 percentage.

`C#C[C@]1(O)CCC2C3CC[C@H]4C[C@@H](O)CCC4C3[C@@H](CCF)C[C@@]21C` (stereo partly drawn) [Compound 31, (3β,5α,11β,17β)-11-(2-fluoroethyl)-19-norpregn-20-yne-3,17-diol]: in assay [1], the α-transactivation was found to be 9.6 percentage. Besides, the β-binding in assay [2] came to 0.1 percentage. Moreover, the β-transactivation in assay [3] was found to be 0.2 percentage. Moreover, the α-binding. in assay [4] is reported as 37 percentage.

`C#C[C@]1(O)CCC2C3CCC4=C(CC[C@H](O)C4)C3[C@@H](CCC=C)C[C@@]21C` (stereo partly drawn) [Compound 43, (3β,11β,17β)-11-(3-butenyl)-19-norpregn-5(10)-en-20-yne-3,17-diol]: the α-transactivation in assay [1] worked out at 1.3 percentage. The β-binding in assay [2] is listed as 0.1 percentage. In addition, the β-transactivation in assay [3] is recorded as under 0.1 percentage. Moreover, the α-binding. in assay [4] is reported as 11.9 percentage.

For `C#C[C@]1(O)CCC2C3CCC4=C(CC[C@@H](O)C4)C3[C@@H](CC=C)C[C@@]21C` (stereo partly drawn) [Compound 11, (3α,11β,17β)-11-(2-propenyl)-19-norpregn-5(10)-en-20-yne-3,17-diol], the α-transactivation in assay [1] amounted to 58 percentage. For the same compound, the β-binding in assay [2] is given as 1.1 percentage. Further, the β-transactivation in assay [3] is listed as 0.8 percentage. In addition, in assay [4], the α-binding. is on record as 57 percentage.

`C#C[C@]1(O)CCC2C3CCC4=C(CC[C@@H](O)C4)C3[C@@H](CCC=C)C[C@@]21C` (stereo partly drawn) [Compound 42, (3α,11β,17β)-11-(3-butenyl)-I9-norpregn-5(10)-en-20-yne-3,17-diol]: the α-transactivation in assay [1] is given as 2 percentage. For the same compound, the β-binding in assay [2] is given as 0.1 percentage. Moreover, the β-transactivation in assay [3] is on record as under 0.04 percentage. In assay [4], the α-binding. was 29 percentage.
